We go through four molecules from patent US10556865B2, “Synergistic herbicidal composition containing certain pyridine or pyrimidine carboxylic acids and certain cereal and rice herbicides” (Dow AgroSciences, LLC, priority 2007, dated 2020).

Common to all, as to format: in vivo
Assay [1] concerns scented mayweed (Matricaria chamomila L; MATCH). The assay is described as follows: Postemergence herbicidal activity of mixtures in cereal crops (greenhouse, visual injury). Conditions: Matricaria, post-emergence, read-out: MATCH Ob. In short, it runs like this:
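Weeds grown in greenhouse (~14 h photoperiod, ~18/17 °C day/night) to second–third true leaf stage, sprayed postemergence with compound and second cereal herbicide alone or combined; solvent-blank controls. Injury scored visually after 20-22 days, 0–100% (complete kill); expected mixture activity = A+B−(A×B/100).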

Assay [2] concerns chickweed (Stellaria media L; STEME). The assay is described as above. Conditions: for pest or weed control at 17.5 g/ha / pest or weed control at 35 g/ha / pest or weed control at 70 g/ha / pest or weed control at 8.75 g/ha / pest or weed control at 140 g/ha: Stellaria media, post-emergence, read-out: STEME Ob. An outline of the steps: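 Greenhouse-grown plants at 2nd–3rd true leaf stage (14 h photoperiod, ~18/17 °C) sprayed postemergence at 187 L/ha with compound A or B (methyl ester or TEA/K salt) and a second cereal herbicide, alone and in two- or three-way mixtures. Visual injury (0–100%) scored versus solvent-blank controls after 20–22 days; expected mixture activity calculated by Colby's equation.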

Assay [3] deals with blackgrass (Alopecurus myosuroides L; ALOMY). Briefly: Postemergence herbicidal activity of mixtures in cereal crops (greenhouse, visual injury 0-100 percent after 20-22 days). In short, it runs like this: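 Plants at second-third true leaf stage sprayed postemergence at 187 L/ha with compound and second cereal herbicide alone and combined; solvent blank controls. Visual injury scored 0-100% versus controls after 20-22 days; expected mixture effects by Colby's equation.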

Read-outs that look alike come from different tables or passages of the source.

With `COC(=O)c1nc(-c2ccc(Cl)c(OC)c2F)cc(N)c1Cl` [Compound A Methyl, 4-amino-3-chloro-6-(4-chloro-2-fluoro-3-methoxyphenyl)pyridine-2-carboxylic acid methyl ester], the results for the pest or weed control at 17.5 g/ha in assay [1] (17.5 g/ha) and in assay [2] (17.5 g/ha) were 15% and 78%, respectively. Further, the results for the pest or weed control at 35 g/ha in assay [1] (35 g/ha) and in assay [2] (35 g/ha) were 68% and 90%, respectively. Moreover, the results for the pest or weed control at 70 g/ha in assay [1] (70 g/ha) and in assay [2] (70 g/ha) were 65% and 100%, respectively. The “ALOMY Ob” value turned out to be 0% in assay [3] (17.5 g/ha, Table 1); 0% in assay [3] (17.5 g/ha, Table 2); 0% in assay [3] (17.5 g/ha, Table 4); 0% in assay [3] (17.5 g/ha, Table 5); 0% in assay [3] (17.5 g/ha, Table 6); 20% in assay [3] (35 g/ha, Table 1). In addition, the “ALOMY Ob” value in assay [3] (35 g/ha, Table 2) is 20%; in assay [3] (35 g/ha, Table 3), 30%; in assay [3] (35 g/ha, Table 4) it was 30%; in assay [3] (35 g/ha, Table 5), 30%; in assay [3] (35 g/ha, Table 6) it was 30%; in assay [3] (35 g/ha, Table 7), 3%. The “ALOMY Ob” value in assay [3] (70 g/ha, Table 1) amounted to 50%; in assay [3] (70 g/ha, Table 2), 50%; in assay [3] (70 g/ha, Table 3), 30%; in assay [3] (70 g/ha, Table 4), 30%; in assay [3] (70 g/ha, Table 5), 30%; in assay [3] (70 g/ha, Table 6), 30%. In addition, the “ALOMY Ob” value in assay [3] (70 g/ha, Table 7) is 20%; in assay [3] (140 g/ha, Table 7), 47%.

For the molecule `COc1c(Cl)ccc(-c2cc(N)c(Cl)c(C(=O)O)n2)c1F` [Compound A TEA, 4-amino-3-chloro-6-(4-chloro-2-fluoro-3-methoxyphenyl)pyridine-2-carboxylic acid], the pest or weed control at 8.75 g/ha in assay [1] (8.75 g/ha alone) turned out to be 71%; in assay [1] (8.75 g/ha), 71%; in assay [2] (8.75 g/ha alone), 80%; in assay [2] (8.75 g/ha) it was 80%. The pest or weed control at 17.5 g/ha in assay [1] (17.5 g/ha alone) came out at 76%; in assay [1] (17.5 g/ha) it was 76%; in assay [2] (17.5 g/ha alone), 85%; in assay [2] (17.5 g/ha), 85%. Also, the pest or weed control at 35 g/ha in assay [1] (35 g/ha alone) worked out at 84%; in assay [2] (35 g/ha alone) it was 88%. Also, the figures for the pest or weed control at 70 g/ha in assay [1] (70 g/ha alone) and in assay [2] (70 g/ha alone) were 94% and 93%, respectively. Moreover, the pest or weed control at 140 g/ha in assay [1] (140 g/ha) and in assay [2] (140 g/ha) was 65% throughout. In addition, the “STEME Ob” value in assay [2] (70 g/ha alone) worked out at 93%. Also, the “ALOMY Ob” value was determined as 0% in assay [3] (35 g/ha, Table 14); 0% in assay [3] (35 g/ha, Table 16); 0% in assay [3] (35 g/ha, Table 18); 0% in assay [3] (35 g/ha, Table 19); 0% in assay [3] (70 g/ha, Table 14); 0% in assay [3] (70 g/ha, Table 16). For the same molecule, the “ALOMY Ob” value is given as 0% in assay [3] (70 g/ha, Table 18); 0% in assay [3] (70 g/ha, Table 19); 3% in assay [3] (140 g/ha, Table 14); 0% in assay [3] (140 g/ha, Table 16); 3% in assay [3] (140 g/ha, Table 18); 0% in assay [3] (140 g/ha, Table 19).

As to `COC(=O)c1nc(-c2ccc(Cl)c(OC)c2F)nc(N)c1Cl` [Compound B Methyl, 6-amino-5-chloro-2-(4-chloro-2-fluoro-3-methoxyphenyl)pyrimidine-4-carboxylic acid methyl ester], the pest or weed control at 8.75 g/ha in assay [1] (8.75 g/ha alone) worked out at 10%. In assay [1] (17.5 g/ha alone), the pest or weed control at 17.5 g/ha is 10%. Moreover, the pest or weed control at 35 g/ha in assay [1] (35 g/ha alone) amounted to 40%. In addition, in assay [1] (70 g/ha alone), the pest or weed control at 70 g/ha amounted to 45%. Also, the “ALOMY Ob” value in assay [3] (8.75 g/ha) came out at 0%; in assay [3] (8.75 g/ha, Table 20), 0%; in assay [3] (8.75 g/ha, Table 22), 0%; in assay [3] (17.5 g/ha) it was 10%; in assay [3] (17.5 g/ha, Table 20), 10%; in assay [3] (17.5 g/ha, Table 22), 10%. Further, the “ALOMY Ob” value in assay [3] (35 g/ha) came to 20%; in assay [3] (35 g/ha, Table 20), 20%; in assay [3] (35 g/ha, Table 22) it was 20%; in assay [3] (70 g/ha), 40%; in assay [3] (70 g/ha, Table 20) it was 40%; in assay [3] (70 g/ha, Table 22), 40%.

In the case of `O=C(O)c1c(Cl)ccc2cc(Cl)cnc12` [Quinclorac], the pest or weed control at 140 g/ha in assay [2] (140 g/ha alone) was found to be 0%.
